Assay results published in ChEMBL document CHEMBL2311273, “Discovery of potent, selective multidrug and toxin extrusion transporter 1 (MATE1, SLC47A1) inhibitors through prescription drug profiling and computational modeling” (J Med Chem, 2013).

Assays:
Type in all cases: cell-based
[1] = target: T1, MATE1 (multidrug and toxin extrusion protein 1) (Homo sapiens, UniProt Q96FL8); experiment: (§1) Inhibition of human MATE1-mediated ASP+ uptake expressed in HEK293 cells at 20 uM after 1.5 mins by fluorescence assay; conditions: HEK293 cells expressing human MATE1, probe ASP+
T1 sequence (Q96FL8 whole entry): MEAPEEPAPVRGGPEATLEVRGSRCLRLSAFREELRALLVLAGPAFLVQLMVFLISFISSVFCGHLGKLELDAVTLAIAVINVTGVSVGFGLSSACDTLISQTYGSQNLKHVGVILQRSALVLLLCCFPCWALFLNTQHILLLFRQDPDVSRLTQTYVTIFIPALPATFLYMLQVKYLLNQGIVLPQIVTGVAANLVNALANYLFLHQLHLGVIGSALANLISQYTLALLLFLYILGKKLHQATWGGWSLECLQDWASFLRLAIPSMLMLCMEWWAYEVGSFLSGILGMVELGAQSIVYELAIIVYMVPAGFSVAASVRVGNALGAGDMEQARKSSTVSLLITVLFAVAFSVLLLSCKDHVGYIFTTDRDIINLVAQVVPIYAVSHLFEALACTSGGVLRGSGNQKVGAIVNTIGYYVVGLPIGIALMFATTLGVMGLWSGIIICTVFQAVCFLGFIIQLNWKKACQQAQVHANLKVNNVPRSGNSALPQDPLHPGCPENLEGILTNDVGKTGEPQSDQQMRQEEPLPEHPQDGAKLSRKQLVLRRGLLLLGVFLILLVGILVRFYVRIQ

[2] = target: T2, Solute carrier family 22 member 2 (Homo sapiens, UniProt O15244); experiment: Inhibition of human OCT2-mediated ASP+ uptake expressed in HEK293 cells after 3 mins by fluorescence assay
T2 sequence (O15244 whole entry): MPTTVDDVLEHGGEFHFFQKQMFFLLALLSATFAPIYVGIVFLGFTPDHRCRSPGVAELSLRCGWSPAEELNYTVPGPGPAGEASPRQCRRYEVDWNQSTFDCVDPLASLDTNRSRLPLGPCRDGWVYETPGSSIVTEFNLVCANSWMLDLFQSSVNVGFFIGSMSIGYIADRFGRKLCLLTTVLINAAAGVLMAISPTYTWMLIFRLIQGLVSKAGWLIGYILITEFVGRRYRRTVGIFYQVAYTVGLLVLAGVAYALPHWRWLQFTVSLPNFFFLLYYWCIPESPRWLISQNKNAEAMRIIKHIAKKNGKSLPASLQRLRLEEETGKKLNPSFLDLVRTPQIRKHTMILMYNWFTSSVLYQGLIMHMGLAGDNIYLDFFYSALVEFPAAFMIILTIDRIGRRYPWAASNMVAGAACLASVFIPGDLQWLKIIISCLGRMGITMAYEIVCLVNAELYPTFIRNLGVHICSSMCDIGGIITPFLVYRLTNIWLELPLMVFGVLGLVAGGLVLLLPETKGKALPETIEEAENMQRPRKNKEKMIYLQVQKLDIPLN

[3] = target: T3, Multidrug and toxin extrusion protein 2 (Homo sapiens, UniProt Q86VL8); experiment: Inhibition of human MATE2K-mediated ASP+ uptake expressed in HEK293 cells after 1.5 mins by fluorescence assay
T3 sequence (Q86VL8 whole entry): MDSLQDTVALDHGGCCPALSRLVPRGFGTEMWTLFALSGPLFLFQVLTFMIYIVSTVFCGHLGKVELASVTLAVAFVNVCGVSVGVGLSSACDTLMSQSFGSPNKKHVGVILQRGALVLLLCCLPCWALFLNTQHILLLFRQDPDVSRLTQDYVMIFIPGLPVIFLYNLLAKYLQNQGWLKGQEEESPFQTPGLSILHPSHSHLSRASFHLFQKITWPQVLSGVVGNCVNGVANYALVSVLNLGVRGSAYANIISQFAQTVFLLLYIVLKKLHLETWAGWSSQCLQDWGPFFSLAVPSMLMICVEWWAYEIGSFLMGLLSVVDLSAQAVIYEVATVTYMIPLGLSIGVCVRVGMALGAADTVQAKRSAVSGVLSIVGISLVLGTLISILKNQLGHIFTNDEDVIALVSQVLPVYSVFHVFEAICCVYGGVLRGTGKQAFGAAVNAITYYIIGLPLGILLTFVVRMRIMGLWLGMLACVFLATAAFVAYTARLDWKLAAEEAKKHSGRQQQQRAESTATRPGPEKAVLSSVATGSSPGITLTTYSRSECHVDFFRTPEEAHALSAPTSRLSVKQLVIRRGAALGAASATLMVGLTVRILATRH

[4] = target: T4, Multidrug and toxin extrusion protein 1 (Homo sapiens, UniProt Q96FL8); experiment: Inhibition of human MATE1-mediated ASP+ uptake expressed in HEK293 cells after 1.5 mins by fluorescence assay
T4 sequence (Q96FL8 whole entry): T1 sequence (Q96FL8 whole entry)

[5] = target: T4, Multidrug and toxin extrusion protein 1; experiment: as §1; conditions: hek293, […], 20 µM

Compound | inhibition at […], 20 µM [1] | IC50 [2] | IC50 [3] | IC50 [4] | INH [5]
C[C@]12CCC(=O)C=C1CC[C@@H]1[C@@H]2C(=O)C[C@@]2(C)[C@H]1CC[C@]2(O)C(=O)CO [CORTISONE] | 10% |  |  |  | 
CCCCc1nc(Cl)c(CO)n1Cc1ccc(-c2ccccc2-c2nn[nH]n2)cc1 [LOSARTAN] | 12% |  |  |  | 
[H]/N=C(/N)c1ccc(NCc2nc3cc(C(=O)N(CCC(=O)O)c4ccccn4)ccc3n2C)cc1 [DABIGATRAN] |  | 4.7 µM | 25.3 µM | 8.1 µM | 
NC1=NCC2c3ccccc3Cc3ccccc3N12 (stereo not given) [EPINASTINE] |  | 4.3 µM | 29.8 µM | 1.1 µM | 97%
O=C(O)c1cccnc1 [NIACIN] | 54% |  |  |  | 
CC(N)C12CC3CC(CC(C3)C1)C2 (stereo not given) [RIMANTADINE] |  | 4.4 µM | 288 µM | 7.3 µM | 74%
COc1cc2nc(N3CCN(C(=O)c4ccco4)CC3)nc(N)c2cc1OC [PRAZOSIN] |  |  | 38.4 µM |  | 
CCOC(=O)c1ccc(OC(=O)CCCCCNC(=N)N)cc1 [GABEXATE] | 96% | 0.9 µM | 10.8 µM | 0.5 µM | 
CC(=O)S[C@@H]1CC2=CC(=O)CC[C@]2(C)[C@H]2CC[C@@]3(C)[C@@H](CC[C@@]34CCC(=O)O4)[C@H]12 [SPIRONOLACTONE] | 27% |  |  | 18.6 µM | 
CCOc1ccc(NC(C)=O)cc1 [PHENACETIN] | 53% |  |  |  | 
CC[C@H]1OC(=O)[C@H](C)[C@@H](O[C@H]2C[C@@](C)(OC)[C@@H](O)[C@H](C)O2)[C@H](C)[C@@H](O[C@@H]2O[C@H](C)C[C@H](N(C)C)[C@H]2O)[C@](C)(O)C[C@@H](C)C(=O)[C@H](C)[C@@H](O)[C@]1(C)O [ERYTHROMYCIN] |  |  |  | > 500 µM | 
COc1ccc2c(c1)c(CC(=O)O)c(C)n2C(=O)c1ccc(Cl)cc1 [INDOMETHACIN] | 6% |  |  |  | 
Nc1ncn([C@@H]2O[C@H](CO)[C@@H](O)[C@H]2O)c(=O)n1 [AZACITIDINE] | 50% |  |  |  | 
COc1cc2c3cc1Oc1cc(ccc1O)C[C@@H]1c4c(cc(OC)c(O)c4Oc4ccc(cc4)C[C@@H]3N(C)CC2)CC[N+]1(C)C [TUBOCURARINE] |  | 78.8 µM | 55.5 µM | 9.4 µM | 95%
CN1C[C@H](C(=O)N[C@]2(C)O[C@@]3(O)[C@@H]4CCCN4C(=O)[C@H](Cc4ccccc4)N3C2=O)C[C@@H]2c3cccc4[nH]cc(c34)C[C@H]21 [DIHYDROERGOTAMINE] |  | 49.9 µM | 12.6 µM | 2.8 µM | 72%
Clc1cccc(Cl)c1N=C1NCCN1 [CLONIDINE] | 1% |  |  | 33.3 µM | 
CNS(=O)(=O)Cc1ccc2[nH]cc(CCN(C)C)c2c1 | 7% |  |  | 6.7 µM | 
CC(=O)O[C@H]1C[C@@H]2CC[C@@H]3[C@H](CC[C@@]4(C)[C@H]3C[C@H]([N+]3(C)CCCCC3)[C@@H]4OC(C)=O)[C@@]2(C)C[C@@H]1N1CCCCC1.[Br-] [VECURONIUM BROMIDE] |  | 3.5 µM | 25.2 µM | 1.9 µM | 85%

Compound | inhibition at […], 20 µM [1] | IC50 [2] | IC50 [3] | IC50 [4] | INH [5]
C[C@@H]1C[C@H]2[C@@H]3CCC4=CC(=O)C=C[C@]4(C)[C@@]3(F)[C@@H](O)C[C@]2(C)[C@@]1(O)C(=O)CO [DEXAMETHASONE] | 30% |  |  | > 500 µM | 
CC[C@@]1(O)C(=O)OCc2c1cc1n(c2=O)Cc2cc3c(CN(C)C)c(O)ccc3nc2-1 [TOPOTECAN] |  | 61 µM | 8.6 µM | 1.3 µM | 50%
CCCCC1=NC2(CCCC2)C(=O)N1Cc1ccc(-c2ccccc2-c2nnn[nH]2)cc1 [IRBESARTAN] | 15% |  |  |  | 
C#C[C@]1(O)CC[C@H]2[C@@H]3CCc4cc(O)ccc4[C@H]3CC[C@@]21C [ETHINYL ESTRADIOL] |  | 2.2 µM | 20.2 µM | 21.1 µM | 60%
O=c1[nH]c2ccccc2n1C1CCN(CCCC(c2ccc(F)cc2)c2ccc(F)cc2)CC1 [PIMOZIDE] |  | 34.2 µM | > 500 µM |  | 
C=C[C@H]1C[N@@]2CC[C@H]1C[C@@H]2[C@@H](O)c1ccnc2ccc(OC)cc12 [QUINIDINE] | 28% |  |  |  | 
CCCc1nc2c(C)cc(-c3nc4ccccc4n3C)cc2n1Cc1ccc(-c2ccccc2C(=O)O)cc1 | 38% |  |  | 17.9 µM | 
COc1ccc(CCN2CCC(Nc3nc4ccccc4n3Cc3ccc(F)cc3)CC2)cc1 [ASTEMIZOLE] | 34% |  |  | 26.4 µM | 
O=C1CC2(CCCC2)CC(=O)N1CCCCN1CCN(c2ncccn2)CC1 [BUSPIRONE] |  | 12 µM | 46 µM |  | 
Cc1cc(C2CCCCC2)n(O)c(=O)c1 [CICLOPIROX] | 52% |  |  | > 500 µM | 
CCOC(=O)[C@H](CCc1ccccc1)N[C@@H](C)C(=O)N1CCC[C@H]1C(=O)O | 23% |  |  | > 500 µM | 
CN(C)C(=O)COC(=O)Cc1ccc(OC(=O)c2ccc(NC(=N)N)cc2)cc1 [CAMOSTAT] |  | 16.5 µM | 12.7 µM |  | 77%
COc1cc(C(=O)NS(=O)(=O)c2ccccc2C)ccc1Cc1cn(C)c2ccc(NC(=O)OC3CCCC3)cc12 [ZAFIRLUKAST] |  | 9.7 µM | 7.6 µM |  | 52%
CN1C2CCCC1CC(NC(=O)c1nn(C)c3ccccc13)C2 (stereo not given) [GRANISETRON] |  | 4.3 µM | 311 µM |  | 67%
O=c1[nH]c2ccccc2n1CCCN1CCC(n2c(=O)[nH]c3cc(Cl)ccc32)CC1 [DOMPERIDONE] |  | 7.9 µM | 14.8 µM |  | 66%
CNC(=C[N+](=O)[O-])NCCSCc1ccc(CN(C)C)o1 [RANITIDINE] | 29% |  |  |  | 
c1ccc2[nH]c(-c3cscn3)nc2c1 [THIABENDAZOLE] | 55% |  |  | > 500 µM | 
